Reference: BindingDB's records for doi:10.1021/jm0001626 (Signal Pharmaceuticals, 2000)

Each molecule was assayed against Transcription factor Jun (Homo sapiens, UniProt P05412) (assay: Concentration required to inhibit activator protein-1(AP-1) mediated transcriptional activation in human Jurkat T-cells).
Chain of Transcription factor Jun (P05412 whole entry): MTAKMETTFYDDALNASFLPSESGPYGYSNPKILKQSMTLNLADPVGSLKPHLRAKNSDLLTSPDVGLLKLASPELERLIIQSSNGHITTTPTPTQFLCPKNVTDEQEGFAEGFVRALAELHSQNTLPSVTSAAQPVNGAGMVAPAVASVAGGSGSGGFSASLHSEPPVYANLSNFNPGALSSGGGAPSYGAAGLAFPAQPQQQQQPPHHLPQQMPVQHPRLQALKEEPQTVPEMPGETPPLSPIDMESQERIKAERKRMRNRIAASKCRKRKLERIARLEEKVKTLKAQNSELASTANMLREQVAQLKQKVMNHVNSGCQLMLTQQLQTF

Structure (SMILES)	IC50
O=C(Nc1cc(C(F)(F)F)cc(C(F)(F)F)c1)c1cnc(C(F)(F)F)nc1Cl [4-Chloro-2-trifluoromethyl-pyrimidine-5-carboxylic acid (3,5-bis-trifluoromethyl-phenyl)-amide]	> 10 µM
CCCc1nc(Cl)ncc1C(=O)Nc1cc(C(F)(F)F)cc(C(F)(F)F)c1 [2-Chloro-4-propyl-pyrimidine-5-carboxylic acid (3,5-bis-trifluoromethyl-phenyl)-amide]	0.5 µM
CCc1nc(Cl)ncc1C(=O)Nc1cc(C(F)(F)F)cc(C(F)(F)F)c1 [2-Chloro-4-ethyl-pyrimidine-5-carboxylic acid (3,5-bis-trifluoromethyl-phenyl)-amide]	0.3 µM
O=C(Nc1cc(C(F)(F)F)cc(C(F)(F)F)c1)c1cc(Cl)nc(Cl)n1 [2,6-Dichloro-pyrimidine-4-carboxylic acid (3,5-bis-trifluoromethyl-phenyl)-amide]	> 10 µM
N#Cc1ncc(C(=O)Nc2cc(C(F)(F)F)cc(C(F)(F)F)c2)c(C(F)(F)F)n1 [2-Cyano-4-trifluoromethyl-pyrimidine-5-carboxylic acid (3,5-bis-trifluoromethyl-phenyl)-amide]	> 10 µM
O=C(Nc1cc(C(F)(F)F)cc(C(F)(F)F)c1)c1cnc(Cl)nc1-c1cccs1 [2-Chloro-4-thiophen-2-yl-pyrimidine-5-carboxylic acid (3,5-bis-trifluoromethyl-phenyl)-amide]	8 µM
O=C(Nc1cc(C(F)(F)F)cc(C(F)(F)F)c1)c1cnc(C(F)(F)F)nc1C(F)(F)F [2,4-Bis-trifluoromethyl-pyrimidine-5-carboxylic acid (3,5-bis-trifluoromethyl-phenyl)-amide]	> 10 µM
O=C(Nc1cc(C(F)(F)F)cc(C(F)(F)F)c1)c1cnc(C(F)(F)F)nc1 [2-Trifluoromethyl-pyrimidine-5-carboxylic acid (3,5-bis-trifluoromethyl-phenyl)-amide]	> 10 µM
Cc1ncc(C(=O)Nc2cc(C(F)(F)F)cc(C(F)(F)F)c2)c(C(F)(F)F)n1 [2-Methyl-4-trifluoromethyl-pyrimidine-5-carboxylic acid (3,5-bis-trifluoromethyl-phenyl)-amide]	> 10 µM
O=C(Nc1cc(C(F)(F)F)cc(C(F)(F)F)c1)c1cnc(Cl)nc1C(F)(F)C(F)(F)F [2-Chloro-4-pentafluoroethyl-pyrimidine-5-carboxylic acid (3,5-bis-trifluoromethyl-phenyl)-amide]	0.6 µM
O=C(Nc1cc(C(F)(F)F)cc(C(F)(F)F)c1)c1cc(C(F)(F)F)nc(Cl)n1 [2-Chloro-6-trifluoromethyl-pyrimidine-4-carboxylic acid (3,5-bis-trifluoromethyl-phenyl)-amide]	> 10 µM
O=C(Nc1cc(C(F)(F)F)cc(C(F)(F)F)c1)c1ccc(Cl)cc1C(F)(F)F [N-(3,5-Bis-trifluoromethyl-phenyl)-4-chloro-2-trifluoromethyl-benzamide]	> 30 µM
O=C(Nc1cc(C(F)(F)F)cc(C(F)(F)F)c1)c1cnc(-c2ccccc2)nc1 [2-Phenyl-pyrimidine-5-carboxylic acid (3,5-bis-trifluoromethyl-phenyl)-amide]	> 10 µM
Cc1nc(C(F)(F)F)ncc1C(=O)Nc1cc(C(F)(F)F)cc(C(F)(F)F)c1 [4-Methyl-2-trifluoromethyl-pyrimidine-5-carboxylic acid (3,5-bis-trifluoromethyl-phenyl)-amide]	> 10 µM
O=C(Nc1cc(C(F)(F)F)cc(C(F)(F)F)c1)c1cnc(Cl)nc1 [2-Chloro-pyrimidine-5-carboxylic acid (3,5-bis-trifluoromethyl-phenyl)-amide]	0.3 µM
Cc1cc(C(=O)Nc2cc(C(F)(F)F)cc(C(F)(F)F)c2)nc(Cl)n1 [2-Chloro-6-methyl-pyrimidine-4-carboxylic acid (3,5-bis-trifluoromethyl-phenyl)-amide]	> 10 µM
